Reference: patent US20240197746A1, “COMBINATION THERAPY WITH A MEK INHIBITOR AND A SRC INHIBITOR FOR THE TREATMENT OF COLORECTAL CANCER” (Yeda Research and Development Co. Ltd., priority 2021, published 2024)
Read-outs that look alike come from different tables or passages of the source.

Test system: fresh & PDX human tumors
Test: EVOC drug dose calibration, cell death by H&E viability score
Format: cell-based
Excerpt: Tissue acquisition and EVOC. Female NOD scid gamma (NSG) mice (4-6 months old) bearing PDX tumors were purchased from Jackson Laboratories. Mice arrived to the facility when the tumors had grown sufficiently to be apparent (approximately 60 mm^3) and were maintained until the maximal permitted tumor volume of 1,000 mm^3 was achieved. Mice were killed with CO2, and tumor tissues were removed and placed in ice-cold PBS. Tumors were sliced into 250-μm-thick slices using a vibratome (VF300, Precisionary Instruments) and placed in six-well plates on titanium grids (MA0036, Alabama R&D) with 4 ml of DMEM/F12 medium (supplemented with 5% fetal calf serum, 100 IU ml^−1 penicillin with 100 μg ml−1 streptomycin, 2.5 μg ml^−1 amphotericin B, […] gentamicin sulfate and 100 μl ml−1 l-glutamine). Tissue was cultured at 37° C. with 5% CO2 and 80% O2 on an orbital shaker (TOU-120N, MRC) at 70 r.p.m. The following day, tissue was treated with drugs as indicated for 96 h (medium was changed after 48 h and fresh drug was added), followed by formalin fixing and paraffin embedding after overnight fixation in 4% paraformaldehyde. Note that duplicates and triplicates were assigned randomly to mimic heterogeneity within the tumor tissue in vivo.
Human tumor tissue, either from primary colon cancer or metastatic lesions, was obtained from individuals at the time of operation or at the time of tissue core biopsy. After resection, the fresh tissue was placed in ice-cold PBS for immediate transfer to the lab for EVOC. Specimens were coded anonymously before their arrival to the lab. Forty-six individuals were enrolled in the study and had sufficient tumor volume at operation or accessible tumors for core biopsy to allow us to perform EVOC. In one individual, both primary and metastatic cancer tissue was obtained so that 47 samples in total were studied. In 14 individuals, there was either adenoma or not enough tumor tissue for evaluation. In an additional three individuals, the tissue was necrotic before slicing and EVOC. In one individual, the tissue culture was contaminated, and in one individual, the fixation was insufficient. Finally, 29 CRC primary or metastatic tumors from 28 individuals were analyzed by EVOC.
Histologic sections were assessed for viability by an independent blinded pathologist. Tissue viability was scored on a scale from 0 to 4, where 0 is less than 10% viable tissue and 4 is more than 90% viable tissue. Scores of 3, 2 and 1 correspond to tissue viability of 61-90%, 31-60% and 10-30%, respectively.
Determination of drug treatment concentrations. To determine the concentration of each drug to be used in the ex vivo screen, we first calibrated the effect of multiple concentrations of each drug on PDX CRC tumors. For the screens, we selected the doses that were minimally effective in killing tissue after 4 d of treatment as evaluated by H&E staining. […] In addition, when testing targeted therapies, the present inventors validated that the chosen drug concentrations were effective in inhibiting their targets. This was evaluated by immunohistochemical staining after 24 h of treatment (FIGS. 11A-C). Here again, the lowest drug concentration that was enough to inhibit the drug target was used.

[1] = EVOC, concentrations that demonstrate a difference in amount of cell death in individual patient tissues

Compound	Range eliciting differential response [1]	Range eliciting differential response [µM]
N.N.[Cl][Pt][Cl] [Cisplatin]	0.3-30^ uM	–
Cl.Cl.O=S(=O)(NCCNC/C=C/c1ccc(Br)cc1)c1cccc2cnccc12 [H89 2HCl, H-89 dihydrochloride]	1 to 16 µM	–
COc1ccc(C2=N[C@@H](c3ccc(Cl)cc3)[C@@H](c3ccc(Cl)cc3)N2C(=O)N2CCNC(=O)C2)c(OC(C)C)c1 [Nutlin]	4 to 16 µM	–
O=C1[O][Pt]2([NH][C@@H]3CCCC[C@H]3[NH]2)[O]C1=O [Oxaliplatin]	–	2 to 64
Cc1cc(Nc2cc(N3CCN(C)CC3)nc(Sc3ccc(NC(=O)C4CC4)cc3)n2)n[nH]1 [VX-680]	1 to 16 µM	–
